Measured values as given in patent US10988477B2 (Merck Patent GmbH, priority 2018, dated 2021).

Molecular target: GCN2 kinase (Homo sapiens, UniProt Q9P2K8)
Test: GCN2 enzyme inhibition assay (Transcreener ADP2 fluorescence polarization)
Format: biochemical
Conditions: Enzyme activity for compounds of Formula IV; Ki(app), 280 μM ATP, 25° C.
Summary of the method: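 ADP formation read by Transcreener FP after a 1 h, 25 °C kinase reaction containing 280 μM ATP, 200 μM (RS)7 substrate and 4 nM GCN2, pH 7.5 Tris buffer. Compounds (0–8 μM final) were added 10 min before ATP. Percent inhibition gave IC50 and apparent Ki via tight-binding fit.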

Chain of GCN2 kinase (Q9P2K8 whole entry): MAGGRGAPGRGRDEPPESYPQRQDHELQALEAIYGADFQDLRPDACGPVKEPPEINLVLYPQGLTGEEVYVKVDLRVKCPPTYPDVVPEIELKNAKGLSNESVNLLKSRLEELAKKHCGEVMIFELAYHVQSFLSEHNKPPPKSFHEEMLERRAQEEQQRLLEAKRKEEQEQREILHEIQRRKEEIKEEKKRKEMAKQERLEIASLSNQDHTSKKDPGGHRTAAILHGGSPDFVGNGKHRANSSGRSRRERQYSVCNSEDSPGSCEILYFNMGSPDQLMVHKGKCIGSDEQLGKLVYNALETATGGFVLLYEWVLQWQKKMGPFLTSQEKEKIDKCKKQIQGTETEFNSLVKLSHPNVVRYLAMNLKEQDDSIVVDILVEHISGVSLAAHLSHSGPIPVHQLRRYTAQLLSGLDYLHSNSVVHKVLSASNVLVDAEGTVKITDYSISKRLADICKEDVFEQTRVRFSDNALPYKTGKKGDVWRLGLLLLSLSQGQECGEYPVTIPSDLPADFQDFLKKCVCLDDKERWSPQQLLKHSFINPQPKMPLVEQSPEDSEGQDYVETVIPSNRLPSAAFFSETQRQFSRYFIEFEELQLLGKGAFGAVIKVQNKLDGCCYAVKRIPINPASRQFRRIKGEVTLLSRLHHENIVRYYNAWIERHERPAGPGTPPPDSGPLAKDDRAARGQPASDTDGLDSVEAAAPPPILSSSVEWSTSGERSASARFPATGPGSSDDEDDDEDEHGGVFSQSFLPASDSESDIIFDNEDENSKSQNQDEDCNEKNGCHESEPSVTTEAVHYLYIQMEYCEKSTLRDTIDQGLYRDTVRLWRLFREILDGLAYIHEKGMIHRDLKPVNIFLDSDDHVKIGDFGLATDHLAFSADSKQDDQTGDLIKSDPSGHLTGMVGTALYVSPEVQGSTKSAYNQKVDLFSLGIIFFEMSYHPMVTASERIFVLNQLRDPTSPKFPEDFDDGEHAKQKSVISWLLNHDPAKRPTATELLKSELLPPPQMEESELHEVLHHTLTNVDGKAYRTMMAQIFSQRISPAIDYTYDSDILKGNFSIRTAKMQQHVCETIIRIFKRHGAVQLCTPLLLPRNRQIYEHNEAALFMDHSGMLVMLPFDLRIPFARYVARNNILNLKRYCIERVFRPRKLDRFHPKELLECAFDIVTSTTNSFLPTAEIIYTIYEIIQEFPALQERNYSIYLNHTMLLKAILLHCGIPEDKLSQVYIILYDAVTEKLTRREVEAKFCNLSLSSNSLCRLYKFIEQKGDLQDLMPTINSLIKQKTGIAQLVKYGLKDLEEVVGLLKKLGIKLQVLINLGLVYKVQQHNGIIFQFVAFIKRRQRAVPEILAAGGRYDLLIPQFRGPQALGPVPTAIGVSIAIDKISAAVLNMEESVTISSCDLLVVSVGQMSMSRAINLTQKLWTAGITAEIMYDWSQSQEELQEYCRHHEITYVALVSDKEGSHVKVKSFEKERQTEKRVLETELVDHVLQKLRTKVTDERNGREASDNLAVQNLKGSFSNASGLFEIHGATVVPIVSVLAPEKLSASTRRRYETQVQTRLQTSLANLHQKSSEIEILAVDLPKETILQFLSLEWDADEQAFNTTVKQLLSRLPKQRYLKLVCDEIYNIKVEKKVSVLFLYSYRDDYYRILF

Row | Ki [nM] | SMILES
1 | 100 to 1000 | CC1CC(C)C(C)N(c2ccnc(-c3cnc4cnc(C(F)(F)F)cn34)n2)C1 (stereo not drawn) [IV-643, 6-(Trifluoromethyl)-3-(4-(2,3,5-trimethylpiperidin-1-yl)pyrimidin-2-yl)imidazo[1,2-a]pyrazine]
2 | 100 to 1000 | FC(F)(F)c1cn2c(-c3nccc(N4CCC(C5CCCC5)C4)n3)cnc2cn1 (stereo not drawn) [IV-644, 3-(4-(3-Cyclopentylpyrrolidin-1-yl)pyrimidin-2-yl)-6-(trifluoromethyl)imidazo[1,2-a]pyrazine]
3 | 100 to 1000 | OC1CCN(C2CCN(c3ccnc(-c4cnc5cnc(C(F)(F)F)cn45)n3)C2)CC1 (stereo not drawn) [IV-645, 1-(1-(2-(6-(Trifluoromethyl)imidazo[1,2-a]pyrazin-3-yl)pyrimidin-4-yl)pyrrolidin-3-yl)piperidin-4-ol]
4 | 10 to 100 | FC(F)(F)c1cn2c(-c3nccc(N4CCC(c5cccnc5)C4)n3)cnc2cn1 (stereo not drawn) [IV-646, 3-(4-(3-(Pyridin-3-yl)pyrrolidin-1-yl)pyrimidin-2-yl)-6-(trifluoromethyl)imidazo[1,2-a]pyrazine]
5 | 100 to 1000 | Cn1nc(C2CCN(c3ccnc(-c4cnc5cnc(C(F)(F)F)cn45)n3)C2)cc1O (stereo not drawn) [IV-647, 1-Methyl-3-(1-(2-(6-(trifluoromethyl)imidazo[1,2-a]pyrazin-3-yl)pyrimidin-4-yl)pyrrolidin-3-yl)-1H-pyrazol-5-ol]
6 | 100 to 1000 | FC(F)(F)c1cn2c(-c3nccc(N4CCCC(c5cc(C(F)(F)F)[nH]n5)C4)n3)cnc2cn1 (stereo not drawn) [IV-653, 6-(Trifluoromethyl)-3-(4-(3-(5-(trifluoromethyl)-1H-pyrazol-3-yl)piperidin-1-yl)pyrimidin-2-yl)imidazo[1,2-a]pyrazine]
7 | 100 to 1000 | Cn1cc(C(F)(F)F)nc1C1CCCN(c2ccnc(-c3cnc4cnc(C(F)(F)F)cn34)n2)C1 (stereo not drawn) [IV-654, 3-(4-(3-(1-Methyl-4-(trifluoromethyl)-1H-imidazol-2-yl)piperidin-1-yl)pyrimidin-2-yl)-6-(trifluoromethyl)imidazo[1,2-a]pyrazine]
8 | 100 to 1000 | Cn1nccc1C1CCCN(c2ccnc(-c3cnc4cnc(C(F)(F)F)cn34)n2)C1 (stereo not drawn) [IV-655, 3-(4-(3-(1-Methyl-1H-pyrazol-5-yl)piperidin-1-yl)pyrimidin-2-yl)-6-(trifluoromethyl)imidazo[1,2-a]pyrazine]
9 | 100 to 1000 | FC(F)(F)c1cn2c(-c3nccc(N4CCCC(c5nnco5)C4)n3)cnc2cn1 (stereo not drawn) [IV-656, 2-(1-(2-(6-(Trifluoromethyl)imidazo[1,2-a]pyrazin-3-yl)pyrimidin-4-yl)piperidin-3-yl)-1,3,4-oxadiazole]
10 | 100 to 1000 | Cc1c[nH]nc1C1CN(c2ccnc(-c3cnc4cnc(C(F)(F)F)cn34)n2)CCO1 (stereo not drawn) [IV-657, 2-(4-Methyl-1H-pyrazol-3-yl)-4-(2-(6-(trifluoromethyl)imidazo[1,2-a]pyrazin-3-yl)pyrimidin-4-yl)morpholine]
11 | 100 to 1000 | O=S1(=O)CCCN1C1CCCN(c2ccnc(-c3cnc4cnc(C(F)(F)F)cn34)n2)C1 (stereo not drawn) [IV-658, 2-(1-(2-(6-(Trifluoromethyl)imidazo[1,2-a]pyrazin-3-yl)pyrimidin-4-yl)piperidin-3-yl)isothiazolidine 1,1-dioxide]
12 | 100 to 1000 | FC(F)(F)c1cn2c(-c3nccc(N4CCCC(c5n[nH]c(C6CCCCC6)n5)C4)n3)cnc2cn1 (stereo not drawn) [IV-659, 3-(4-(3-(5-Cyclohexyl-1H-1,2,4-triazol-3-yl)piperidin-1-yl)pyrimidin-2-yl)-6-(trifluoromethyl)imidazo[1,2-a]pyrazine]
13 | 100 to 1000 | O=c1nc(C2CCCN(c3ccnc(-c4cnc5cnc(C(F)(F)F)cn45)n3)C2)[nH][nH]1 (stereo not drawn) [IV-660, 5-(1-(2-(6-(Trifluoromethyl)imidazo[1,2-a]pyrazin-3-yl)pyrimidin-4-yl)piperidin-3-yl)-1,2-dihydro-3H-1,2,4-triazol-3-one]
14 | 100 to 1000 | Cc1nc(C2CN(c3ccnc(-c4cnc5cnc(C(F)(F)F)cn45)n3)CCO2)n[nH]1 (stereo not drawn) [IV-661, 2-(5-Methyl-1H-1,2,4-triazol-3-yl)-4-(2-(6-(trifluoromethyl)imidazo[1,2-a]pyrazin-3-yl)pyrimidin-4-yl)morpholine]
15 | 100 to 1000 | Cn1nc(C2CCCN(c3ccnc(-c4cnc5cnc(C(F)(F)F)cn45)n3)C2)cc1CCO (stereo not drawn) [IV-662, 2-(1-Methyl-3-(1-(2-(6-(trifluoromethyl)imidazo[1,2-a]pyrazin-3-yl)pyrimidin-4-yl)piperidin-3-yl)-1H-pyrazol-5-yl)ethan-1-ol]
16 | 100 to 1000 | O=C1CC(C2CCCN(c3ccnc(-c4cnc5cnc(C(F)(F)F)cn45)n3)C2)CN1 (stereo not drawn) [IV-663, 4-(1-(2-(6-(Trifluoromethyl)imidazo[1,2-a]pyrazin-3-yl)pyrimidin-4-yl)piperidin-3-yl)pyrrolidin-2-one]
17 | 100 to 1000 | FC(F)(F)c1cn2c(-c3nccc(N4CCCC(n5ccc(C(F)(F)F)n5)C4)n3)cnc2cn1 (stereo not drawn) [IV-664, 6-(Trifluoromethyl)-3-(4-(3-(3-(trifluoromethyl)-1H-pyrazol-1-yl)piperidin-1-yl)pyrimidin-2-yl)imidazo[1,2-a]pyrazine]
18 | 100 to 1000 | FC(F)(F)c1cn2c(-c3nccc(N4CCCC(n5cccn5)C4)n3)cnc2cn1 (stereo not drawn) [IV-665, 3-(4-(3-(1H-Pyrazol-1-yl)piperidin-1-yl)pyrimidin-2-yl)-6-(trifluoromethyl)imidazo[1,2-a]pyrazine]
19 | 10 to 100 | CC1CN(c2ccnc(-c3cnc4cnc(C(F)(F)F)cn34)n2)C(C)C(c2c[nH]c(C(F)(F)F)n2)N1 (stereo not drawn) [IV-666, 3-(4-(2,5-Dimethyl-3-(2-(trifluoromethyl)-1H-imidazol-4-yl)piperazin-1-yl)pyrimidin-2-yl)-6-(trifluoromethyl)imidazo[1,2-a]pyrazine]
20 | 100 to 1000 | FC(F)(F)c1cn2c(-c3nccc(N4CCCC(c5nncs5)C4)n3)cnc2cn1 (stereo not drawn) [IV-671, 2-(1-(2-(6-(Trifluoromethyl)imidazo[1,2-a]pyrazin-3-yl)pyrimidin-4-yl)piperidin-3-yl)-1,3,4-thiadiazole]
21 | 10 to 100 | FC(F)(F)c1cn2c(-c3nccc(N4CC(CN5CCC5)CC(c5cn[nH]c5)C4)n3)cnc2cn1 (stereo not drawn) [IV-681, 3-(4-(3-(Azetidin-1-ylmethyl)-5-(1H-pyrazol-4-yl)piperidin-1-yl)pyrimidin-2-yl)-6-(trifluoromethyl)imidazo[1,2-a]pyrazine]
22 | 100 to 1000 | CC1C(c2cn[nH]c2)CC(P(C)(C)=O)CN1c1ccnc(-c2cnc3cnc(C(F)(F)F)cn23)n1 (stereo not drawn) [IV-697, Dimethyl(6-methyl-5-(1H-pyrazol-4-yl)-1-(2-(6-(trifluoromethyl)imidazo[1,2-a]pyrazin-3-yl)pyrimidin-4-yl)piperidin-3-yl)phosphine oxide]
23 | 100 to 1000 | CS(=O)(=O)N1CCC2(CC1)CN(c1ccnc(-c3cnc4cnc(C(F)(F)F)cn34)n1)C2 [IV-698, 3-(4-(7-(Methylsulfonyl)-2,7-diazaspiro[3.5]nonan-2-yl)pyrimidin-2-yl)-6-(trifluoromethyl)imidazo[1,2-a]pyrazine]

Row | Ki [nM] | SMILES
24 | 100 to 1000 | CC(=O)N1CCN(c2ccnc(-c3cnc4cnc(C(N)=O)cn34)n2)CC1(C)C [IV-699, 3-(4-(4-Acetyl-3,3-dimethylpiperazin-1-yl)pyrimidin-2-yl)imidazo[1,2-a]pyrazine-6-carboxamide]
25 | 100 to 1000 | CC(=O)N1CCN(c2ccc(C(F)(F)F)c(-c3cnc4cnc(C(N)=O)cn34)n2)CC1 [IV-700, 3-(6-(4-acetylpiperazin-1-yl)-3-(trifluoromethyl)pyridin-2-yl)imidazo[1,2-a]pyrazine-6-carboxamide]
26 | 100 to 1000 | COc1cnc(N2CCN(C(C)=O)CC2)nc1-c1cnc2cnc(C(N)=O)cn12 [IV-701, 3-(2-(4-acetylpiperazin-1-yl)-5-methoxypyrimidin-4-yl)imidazo[1,2-a]pyrazine-6-carboxamide]
27 | < 10 | FC(F)(F)c1cn2c(-c3nccc(N4CCC[C@@H](c5c[nH]cn5)C4)n3)cnc2cn1 [IV-706]
28 | 10 to 100 | FC(F)(F)c1cn2c(-c3nccc(N4CCC[C@H](c5c[nH]cn5)C4)n3)cnc2cn1 [IV-707]
29 | 10 to 100 | FC(F)(F)c1cn2c(-c3nccc(N4CCCC(c5ncc[nH]5)C4)n3)cnc2cn1 (stereo not drawn) [IV-708]
30 | 100 to 1000 | O=C(N[C@@H]1CCCN(c2ccnc(-c3cnc4cnc(C(F)(F)F)cn34)n2)C1)c1cn[nH]c1 [IV-709]
31 | 100 to 1000 | NS(=O)(=O)c1ccc(C(=O)N[C@@H]2CCCN(c3ccnc(-c4cnc5cnc(C(F)(F)F)cn45)n3)C2)o1 [IV-710]
32 | 100 to 1000 | FC(F)(F)c1cn2c(-c3nccc(N4CCOC(c5cccnc5)C4)n3)cnc2cn1 (stereo not drawn) [IV-711]
33 | 100 to 1000 | FC(F)(F)c1cn2c(-c3nccc(N4CCO[C@H](c5ccccn5)C4)n3)cnc2cn1 [IV-713]
34 | 100 to 1000 | Cc1csc2c1CN(c1ccnc(-c3cnc4cnc(C(F)(F)F)cn34)n1)CC2 [IV-714]
35 | 100 to 1000 | NS(=O)(=O)c1cc2c(s1)CCN(c1ccnc(-c3cnc4cnc(C(F)(F)F)cn34)n1)C2 [IV-715]
36 | 100 to 1000 | FC(F)(F)c1cn2c(-c3nccc(N4CCOC(c5ccccn5)C4)n3)cnc2cn1 (stereo not drawn) [IV-717]
37 | 100 to 1000 | C[C@H]1CN(c2ccnc(-c3cnc4cnc(C(F)(F)F)cn34)n2)C[C@@H](c2nc(C3CC3)no2)O1 [IV-718]
38 | 100 to 1000 | FC(F)(F)c1cn2c(-c3nccc(N4CCCC(c5ncccn5)C4)n3)cnc2cn1 (stereo not drawn) [IV-719]
39 | 100 to 1000 | O=C(Nc1ccncc1)[C@H]1CCCN(c2ccnc(-c3cnc4cnc(C(F)(F)F)cn34)n2)C1 [IV-720]
40 | 100 to 1000 | O=C(Nc1cn[nH]c1)[C@H]1CCCN(c2ccnc(-c3cnc4cnc(C(F)(F)F)cn34)n2)C1 [IV-721]
41 | 100 to 1000 | FC(F)(F)c1cn2c(-c3nccc(N4CCO[C@@H](c5ccccn5)C4)n3)cnc2cn1 [IV-722]
42 | 100 to 1000 | O=C(Nc1cccnc1)[C@H]1CCCN(c2ccnc(-c3cnc4cnc(C(F)(F)F)cn34)n2)C1 [IV-723]
43 | > 1000 | O=C(Nc1cn[nH]c1)[C@@H]1CCCN(c2ccnc(-c3cnc4cnc(C(F)(F)F)cn34)n2)C1 [IV-725]
44 | > 1000 | N#CC1CN(c2ccnc(-c3cnc4cnc(C(F)(F)F)cn34)n2)CCO1 (stereo not drawn) [IV-726]
45 | > 1000 | CS(=O)(=O)N=S1(=O)CCN(c2ccnc(-c3cnc4cnc(C(F)(F)F)cn34)n2)CC1 [IV-727]
